The values below are quoted from earlier work in patent US10688050B1 (Synthon B.V., priority 2018, dated 2020).

Like-named read-outs stand apart in the source and are kept apart here.

Test in data set [1]: not given
This is another data set of the same source.

Turning to `C=CC(=O)N1CCC[C@@H](n2nc(-c3ccc(Oc4ccccc4)cc3)c3c(N)ncnc32)C1` [ibrutinib form A], the solubility entry is given as “slightly soluble” (pH 1.2) and “practically insoluble” (pH range from 3 to 8).
For `C=CC(=O)N1CCC[C@@H](n2nc(-c3ccc(Oc4ccccc4)cc3)c3c(N)ncnc32)C1` [Ibrutinib, 1-[(3R)-3-[4-amino-3-(4-phenoxyphenyl)-1H-pyrazolo[3,4-d]pyrimidin-1-yl]piperidin-1-yl]prop-2-en-1-one], the “solubility (BCS)” value in data set [1] is “low”.
